Assay results published in US20240050491A1 (priority 2021, published 2024).

Key:
[1] = test system: Salmonella; assay: Decontamination of Salmonella contaminated alfalfa seeds by Ca-hypochlorite; assay type: in vivo, Salmonella enterica serovar Typhimurium; details: 20,000 ppm
Experimental: FIGS. 18A-B are graphs illustrating the influence of decontamination by Ca-hypochlorite, of Salmonella contaminated alfalfa seeds, on the concentration of Salmonella. The seeds were contaminated with Salmonella by dipping in 10^2-[…] CFU/ml. Decontamination was performed with 20,000 ppm Ca-hypochlorite. The number of Salmonella on the seeds (CFU/g seeds) was detected immediately after the contamination (A), and in the sprouts (B) after 3 days of sprouting (CFU/g sprouts). The results are representing the average and standard error of 3 independent experiments in duplicates. When bacteria were not detected, enrichment of the samples was performed in BPW. (*) Growth after enrichment. (−) No growth.
(§1) Seed sterilization by Ca-hypochlorite: To assess the ability of Ca-hypochlorite to inactivate the Salmonella enterica serovar Typhimurium (STm) strain SL1344 on the seeds, alfalfa seeds were pre-contaminated with increasing concentrations of STm cells. […] After 4 days the alfalfa sprouts were extracted and the STm concentration in the extract was analyzed. Salmonella Typhimurium SL1344 survival in sprouts in the presence or absence of Bacillus BX-77 was analyzed after disinfection by Ca-hypochlorite of alfalfa seeds contaminated by 10^2 or 10^5 CFU of STm. […]

[2] = test system: Salmonella Typhimurium SL1344; assay: Salmonella survival in alfalfa sprouts with BX-77 and/or Ca-hypochlorite disinfection; assay type: in vivo
Description: FIG. 19 is a graph illustrating Salmonella Typhimurium SL1344 survival in sprouts in the presence of BX-77 or absence of BX-77 after disinfection by Ca-hypochlorite of Salmonella contaminated seeds. Alfalfa seeds were contaminated by 10^2 or 10^5 CFU of Salmonella, dried, decontaminated by Ca-hypochlorite and seeded in the presence or absence of BX-77. Salmonella infected seeds were used as controls in the absence or the presence of BX-77. The experiment was repeated twice and each set included 5 cups.
as §1, with “cells. Breifly, seeds (1 g) 15 were contaminated with the desired number of bacteria by adding 20 μL of STm suspended in SDDW and mixing by a sterile plastic spreader and then the seeds were dried at room-temp for 30 minutes.” for “cells.”

[Ca+2].[O-]Cl.[O-]Cl [Ca-hypochlorite, calcium hypochlorite]
efficiency of decontamination ([1]; higher Salmonella concentrations, 3 day sprouts): not efficient
efficiency of decontamination ([1]; low Salmonella concentrations up to 10^3/ml, seeds and 3 day sprouts): Salmonella was not detected even after sprouting
killing of Salmonella cells ([2]; seeds infected by 10^2 CFU of Salmonella): killed all the Salmonella cells
reduction of Salmonella growth ([2]; seeds infected by 10^5 CFU of Salmonella): 2 log CFU/g
